Assay results: US6245817A, “NPY5 receptor antagonists and methods for using same” (Bayer Corporation, priority 1999, dated 2001)

Columns and labels:
Human NPY2 receptor = molecular target: T1, Human NPY2 receptor (Homo sapiens, UniProt P49146); experiment: Human NPY2 Receptor Binding Assay; conditions: [125I]PYY; read-out: hPPY2 IC50
T1 sequence (P49146 1-381): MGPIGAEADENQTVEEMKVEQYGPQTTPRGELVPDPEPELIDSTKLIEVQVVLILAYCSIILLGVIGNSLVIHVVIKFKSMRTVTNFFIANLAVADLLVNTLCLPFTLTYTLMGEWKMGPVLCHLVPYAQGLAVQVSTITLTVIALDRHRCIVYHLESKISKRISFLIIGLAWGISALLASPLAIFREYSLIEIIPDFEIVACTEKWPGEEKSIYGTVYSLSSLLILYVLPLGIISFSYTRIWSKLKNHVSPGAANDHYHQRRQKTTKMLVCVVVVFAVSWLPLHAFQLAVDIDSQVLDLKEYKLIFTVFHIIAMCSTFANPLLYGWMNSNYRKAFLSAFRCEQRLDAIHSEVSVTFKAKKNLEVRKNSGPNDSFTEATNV

Human NPY5 Receptor = molecular target: T2, Human NPY5 Receptor (Homo sapiens, UniProt Q15761); experiment: Human NPY5 Receptor Binding Assay; conditions: [125I]PYY; read-out: hNPY5 IC50
T2 sequence (Q15761 1-445): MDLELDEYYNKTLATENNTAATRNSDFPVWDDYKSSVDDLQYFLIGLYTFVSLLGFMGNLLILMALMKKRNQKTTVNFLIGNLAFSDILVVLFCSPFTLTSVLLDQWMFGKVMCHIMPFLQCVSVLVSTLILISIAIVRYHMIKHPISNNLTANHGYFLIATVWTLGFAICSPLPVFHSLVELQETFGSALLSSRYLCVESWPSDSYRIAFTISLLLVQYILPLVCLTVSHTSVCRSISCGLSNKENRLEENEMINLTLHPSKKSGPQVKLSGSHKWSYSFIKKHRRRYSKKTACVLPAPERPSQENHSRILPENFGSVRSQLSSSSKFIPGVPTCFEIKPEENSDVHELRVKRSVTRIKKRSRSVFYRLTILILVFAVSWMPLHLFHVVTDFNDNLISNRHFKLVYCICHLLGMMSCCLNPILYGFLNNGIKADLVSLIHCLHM
Procedure: Human and Rat NPY5 Receptor Binding Assays
Binding assays are performed on GF/C Millipore 96-well plates pretreated with 0.02% polyethylenimine. The binding buffer is 25 mM Tris, 120 mM NaCl, 5 mM KCl, 1.2 mM KH2 PO4, 2.5 mM CaCl2, 1.2 mM MgSO4, 0.1% BSA and 0.5 mg/ml bacitracin, pH 7.4. Samples consist of membrane protein, 75-100 pM [125I]PYY (porcine, NEN-DuPont) and drug dilution. Nonspecific binding is defined by 1 μM PYY. After a 2 hour incubation at room temperature with constant mixing, the samples are aspirated on a vacuum manifold, and rinsed with ice-cold binding buffer. The amount of radioactivity in each well is quantitated with either gamma counting or liquid scintillation. IC50 values, which correspond to 50% inhibition of specific binding, are determined with non-linear regression analysis.

Human NPY1 Receptor = molecular target: T3, Human NPY1 Receptor (Homo sapiens, UniProt P25929); experiment: Human NPY1 Receptor Binding Assay; conditions: SK-N-MC cells, [125I]PYY; read-out: hNPY1 IC50
T3 sequence (P25929 1-384): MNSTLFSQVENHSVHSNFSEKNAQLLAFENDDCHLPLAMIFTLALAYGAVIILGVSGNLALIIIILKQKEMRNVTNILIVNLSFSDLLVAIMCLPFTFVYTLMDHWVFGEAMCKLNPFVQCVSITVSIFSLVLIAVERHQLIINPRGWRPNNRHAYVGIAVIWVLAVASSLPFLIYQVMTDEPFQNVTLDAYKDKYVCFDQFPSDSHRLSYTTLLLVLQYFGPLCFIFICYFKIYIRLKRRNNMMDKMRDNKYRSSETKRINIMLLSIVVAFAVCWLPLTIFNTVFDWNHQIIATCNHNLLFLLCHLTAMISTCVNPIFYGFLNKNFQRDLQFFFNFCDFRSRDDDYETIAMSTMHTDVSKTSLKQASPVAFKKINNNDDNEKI

Human NPY4/PP1 receptor = Human NPY4/PP1 receptor (Homo sapiens, UniProt P50391); experiment: Human NPY4/PP1 Receptor Binding Assay; conditions: [125I]human PP; read-out: hNPY4 IC50
Human NPY4/PP1 receptor, sequence (P50391 whole entry): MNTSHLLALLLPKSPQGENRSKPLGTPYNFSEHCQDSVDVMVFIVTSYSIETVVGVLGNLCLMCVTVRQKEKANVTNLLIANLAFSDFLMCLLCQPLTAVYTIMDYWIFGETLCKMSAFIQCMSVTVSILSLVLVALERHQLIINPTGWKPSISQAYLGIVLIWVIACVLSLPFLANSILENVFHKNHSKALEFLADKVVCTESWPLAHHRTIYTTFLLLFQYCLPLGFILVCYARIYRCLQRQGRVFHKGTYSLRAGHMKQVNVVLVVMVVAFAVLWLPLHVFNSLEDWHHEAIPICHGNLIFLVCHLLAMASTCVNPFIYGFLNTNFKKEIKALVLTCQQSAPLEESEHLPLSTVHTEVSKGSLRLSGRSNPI

Rat NPY5 Receptor = molecular target: T4, Rat NPY5 Receptor (Rattus norvegicus, UniProt Q63634); experiment: Rat NPY5 Receptor Binding Assay; conditions: for inhibition at 10 µM: values marked *, read-out: rNPY5 percent inhibition at 10 μM; for IC50: [125I]PYY, read-out: rNPY5 IC50
T4 sequence (Q63634 1-445): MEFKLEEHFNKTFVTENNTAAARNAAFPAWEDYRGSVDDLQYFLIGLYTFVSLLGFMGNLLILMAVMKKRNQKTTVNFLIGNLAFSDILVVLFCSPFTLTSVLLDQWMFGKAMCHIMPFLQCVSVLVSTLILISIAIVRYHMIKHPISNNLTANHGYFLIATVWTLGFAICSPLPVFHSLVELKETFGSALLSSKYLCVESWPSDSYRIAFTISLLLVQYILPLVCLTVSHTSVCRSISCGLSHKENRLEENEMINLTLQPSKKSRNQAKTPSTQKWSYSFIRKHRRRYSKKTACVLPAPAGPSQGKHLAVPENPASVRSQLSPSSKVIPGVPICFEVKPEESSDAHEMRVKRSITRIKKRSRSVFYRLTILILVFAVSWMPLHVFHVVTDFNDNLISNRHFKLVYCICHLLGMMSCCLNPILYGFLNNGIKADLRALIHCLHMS

Cn1ccnc1SCC(=O)Nc1ccc(-c2ccccc2)cc1 [Compound 1, N-Biphenyl-4yl-2-(1-methyl-1H-imidazol-2-ylsulfanyl)-acetamide]
IC50 (Human NPY2 receptor): > 10 µM | IC50 (Human NPY5 Receptor): 0.64 µM | IC50 (Human NPY1 Receptor): > 5 µM | IC50 (Human NPY4/PP1 receptor): > 5 µM | inhibition at 10 µM (Rat NPY5 Receptor): 95%

Cc1cc(-c2nnc(SCC(=O)Nc3ccc(C(F)(F)F)cc3)n2C)no1 [Compound 2, 2-[4-Methyl-5-(5-methyl-isoxazol-3-yl)-4H-[1,2,4]triazol-3-ylsultanyl]-N-(4-trifluoro-methyl-phenyl)-acetamide]
IC50 (Human NPY2 receptor): > 5 µM | IC50 (Human NPY5 Receptor): > 10 µM | IC50 (Human NPY1 Receptor): > 5 µM | IC50 (Human NPY4/PP1 receptor): > 5 µM | IC50 (Rat NPY5 Receptor): > 10 µM

O=C(CSc1ncc[nH]1)Nc1ccc(C(=O)c2ccccc2)cc1 [Compound 4, N-(4-Benzoyl-phenyl)-2-(1H-imidazol-2-ylsultanyl)-acetamide]
IC50 (Human NPY2 receptor): > 5 µM | IC50 (Human NPY1 Receptor): > 5 µM | IC50 (Human NPY4/PP1 receptor): > 5 µM | IC50 (Rat NPY5 Receptor): 0.36 µM

Cc1ccccc1NC(=O)CCC(Oc1ccccc1)C(=O)Nc1ccccc1C (centres unmarked) [Compound 6, 2-Phenoxy-pentanedioic acid bis-o-tolylamide]
IC50 (Human NPY2 receptor): > 5 µM | IC50 (Human NPY5 Receptor): 0.16 µM | IC50 (Human NPY1 Receptor): > 5 µM | IC50 (Human NPY4/PP1 receptor): > 5 µM | IC50 (Rat NPY5 Receptor): 0.18 µM

O=C(CCC(Sc1ccccc1)C(=O)Nc1ccccc1)Nc1ccccc1 (centres unmarked) [Compound 7, 2-Phenylsulfanyl-pentanedioic acid bis-phenylamide]
IC50 (Human NPY2 receptor): > 5 µM | IC50 (Human NPY5 Receptor): 1.6 µM | IC50 (Human NPY1 Receptor): > 5 µM | IC50 (Human NPY4/PP1 receptor): > 5 µM | IC50 (Rat NPY5 Receptor): 0.44 µM

Cc1cc(C)n2nc(SCC(=O)Nc3ccc(Cl)cc3)nc2n1 [Compound 137, reference compound]
IC50 (Human NPY2 receptor): > 5 µM | IC50 (Human NPY5 Receptor): > 10 µM | IC50 (Human NPY1 Receptor): > 5 µM | IC50 (Human NPY4/PP1 receptor): > 5 µM | IC50 (Rat NPY5 Receptor): > 10 µM

Cc1nc(-c2nnc(SCC(=O)Nc3ccc(Cl)cc3)n2C)cs1 [Compound 138, N-(4-Chloro-phenyl)-2-(4-methyl-5-(2-methyl-thiazolo-yl)-4H-[1,2,4]triazol-3-ylsulfanyl]-acetamide, reference compound]
IC50 (Human NPY2 receptor): > 5 µM | IC50 (Human NPY5 Receptor): > 10 µM | IC50 (Human NPY1 Receptor): > 5 µM | IC50 (Human NPY4/PP1 receptor): > 5 µM | inhibition at 10 µM (Rat NPY5 Receptor): 52%

Cn1ccnc1SCC(=O)Nc1ccc(Cl)cc1 [Compound 139, N-(4-Chloro-phenyl)-2-(1-methyl-1H-imidazoI-2-ylsulfanyl)-acetamide, reference compound]
IC50 (Human NPY2 receptor): > 5 µM | IC50 (Human NPY5 Receptor): > 10 µM | IC50 (Human NPY1 Receptor): > 5 µM | IC50 (Human NPY4/PP1 receptor): > 5 µM | IC50 (Rat NPY5 Receptor): > 10 µM

CCn1c(SCC(=O)Nc2ccc(Cl)cc2)nc2ccccc21 [Compound 140, N-(4-Chloro-phenyl)-2-(1-ethyl-1H-berzoimidazol-2-ylsulfanyl)-acetamide, reference compound]
IC50 (Human NPY2 receptor): > 5 µM | IC50 (Human NPY5 Receptor): > 10 µM | IC50 (Human NPY1 Receptor): > 5 µM | IC50 (Human NPY4/PP1 receptor): > 5 µM | inhibition at 10 µM (Rat NPY5 Receptor): 61%

CC(C)c1ccc(NC(=O)CSc2n[nH]c(=O)n2-c2cccc(F)c2)cc1 [Compound 141, reference compound]
IC50 (Human NPY2 receptor): > 5 µM | IC50 (Human NPY5 Receptor): 3 µM | IC50 (Human NPY1 Receptor): > 5 µM | IC50 (Human NPY4/PP1 receptor): > 5 µM | IC50 (Rat NPY5 Receptor): 3 µM

CSc1ncc(-c2nnc(SCC(=O)Nc3ccc(Cl)cc3)n2C)n1C [Compound 142, N-(4-Chloro-phenyl)-2-(4-methyl-5-(3-methyl-2-methylsulfanyl-3H-imidazol-4-yl)-4H-[1,2,4]triazol-3-ylsulfanyl]-acetamide, reference compound]
IC50 (Human NPY2 receptor): > 5 µM | IC50 (Human NPY5 Receptor): > 10 µM | IC50 (Human NPY1 Receptor): > 5 µM | IC50 (Human NPY4/PP1 receptor): > 5 µM | IC50 (Rat NPY5 Receptor): > 10 µM

Cn1ccnc1SCC(=O)Nc1ccc(C(C)(C)C)cc1 [Compound 143, N-(4-tert-Butyl-phenyl)-2-(1-methyl-1H-imidazol-2-ylsulfanyl)-acetamide, reference compound]
IC50 (Human NPY2 receptor): > 5 µM | IC50 (Human NPY5 Receptor): 3.1 µM | IC50 (Human NPY1 Receptor): > 5 µM | IC50 (Human NPY4/PP1 receptor): > 5 µM | IC50 (Rat NPY5 Receptor): 3.9 µM

Cn1nnnc1SCC(=O)Nc1ccc(OC(F)(F)F)cc1 [Compound 144, 2-(1-Methyl-1H-tetrazol-5-ylsulfanyl)-N-(4-trifluoromethoxy-phenyl)-acetamide, reference compound]
IC50 (Human NPY2 receptor): > 5 µM | IC50 (Human NPY5 Receptor): 1.2 µM | IC50 (Human NPY1 Receptor): > 5 µM | IC50 (Human NPY4/PP1 receptor): > 5 µM | IC50 (Rat NPY5 Receptor): 1.4 µM

Cn1ccnc1SCC(=O)Nc1ccc(I)cc1 [Compound 145, N-(4-Iodo-phenyl)-2-(1-methyl-1H-imidazol-2-ylsulfanyl)-acetamide, reference compound]
IC50 (Human NPY2 receptor): > 5 µM | IC50 (Human NPY5 Receptor): > 10 µM | IC50 (Human NPY1 Receptor): > 5 µM | IC50 (Human NPY4/PP1 receptor): > 5 µM | IC50 (Rat NPY5 Receptor): > 10 µM

Cc1cc(-c2nc(C)c(-c3nnc(SCC(=O)Nc4ccc(Cl)cc4)n3C)s2)no1 [Compound 169, reference compound]
IC50 (Human NPY5 Receptor): > 10 µM | IC50 (Human NPY1 Receptor): > 5 µM | IC50 (Human NPY4/PP1 receptor): > 5 µM | IC50 (Rat NPY5 Receptor): > 10 µM

Cn1cnnc1SCC(=O)Nc1ccc(F)cc1 [Compound 170, N-(4-Fluoro-phenyl)-2-(4-methyl-4H-[1,2,4]triazol-3-ylsulfanyl)-acetamide, reference compound]
IC50 (Human NPY5 Receptor): > 10 µM | IC50 (Human NPY1 Receptor): > 5 µM | IC50 (Human NPY4/PP1 receptor): > 5 µM | IC50 (Rat NPY5 Receptor): > 10 µM

CCC(C)c1ccc(NC(=O)CSc2nnnn2C)cc1 (centres unmarked) [Compound 171, N-(4-sec-Butyl-phenyl)-2-(1-methyl-1H-tetrazol-5-ylsulfanyl)-acetamide, reference compound]
IC50 (Human NPY5 Receptor): 0.553 µM | IC50 (Human NPY1 Receptor): > 5 µM | IC50 (Human NPY4/PP1 receptor): > 5 µM | IC50 (Rat NPY5 Receptor): 0.525 µM

CCC(C)c1ccc(NC(=O)CSc2nncn2C)cc1 (centres unmarked) [Compound 172, reference compound]
IC50 (Human NPY5 Receptor): 2.3 µM | IC50 (Human NPY1 Receptor): > 5 µM | IC50 (Human NPY4/PP1 receptor): > 5 µM | IC50 (Rat NPY5 Receptor): 2 µM

Cn1cnnc1SCC(=O)Nc1ccc(C2CCCCC2)cc1 [Compound 173, N-(4-Cyclohexyl-phenyl)-2-(4-methyl-4H-[1,2,4]triazol-3-ylsulfanyl)-acetamide, reference compound]
IC50 (Human NPY5 Receptor): 0.08 µM | IC50 (Human NPY1 Receptor): > 5 µM | IC50 (Human NPY4/PP1 receptor): > 5 µM | IC50 (Rat NPY5 Receptor): 0.073 µM

Cc1ccc(NC(=O)CSc2nncn2C)cc1 [Compound 174, 2-(4-Methyl-4H-[1,2,4]triazol-3-ylsulfanyl)-N-p-tolyl-acetamide, reference compound]
IC50 (Human NPY5 Receptor): > 10 µM | IC50 (Human NPY1 Receptor): > 5 µM | IC50 (Human NPY4/PP1 receptor): > 5 µM | IC50 (Rat NPY5 Receptor): > 10 µM

Cn1c(Cn2cc(C(F)(F)F)ccc2=O)nnc1SCC(=O)Nc1ccc(Cl)cc1 [Compound 175, N-(4-Chloro-phenyl)-2-[4-methyl-5-(2-oxo-5-trifluoromethyl-2H-pyridin-1-ylmethyl)-4H-[1,2,4]triazol-3-ylsulfanyl]-acetamide, reference compound]
IC50 (Human NPY2 receptor): > 5 µM | IC50 (Human NPY5 Receptor): 7 µM | IC50 (Human NPY1 Receptor): > 5 µM | IC50 (Human NPY4/PP1 receptor): > 5 µM

CC(C)c1ccc(NC(=O)CSc2nnc(Cn3cc(C(F)(F)F)ccc3=O)n2C)cc1 [Compound 176, N-(4-isopropyl-phenyl)-2-[4-methyl-5-(2-oxo-5-trifluoromethyl-2H-yridin-1-ylmethyl)-4H-[1,2,4]triazol-3-ylsulfanyl]-acetamide, reference compound]
IC50 (Human NPY2 receptor): > 5 µM | IC50 (Human NPY5 Receptor): 3 µM | IC50 (Human NPY1 Receptor): > 5 µM | IC50 (Human NPY4/PP1 receptor): > 5 µM
